BindingDB's records for doi:10.1016/j.bioorg.2014.05.010 (Ain Shams University, 2014)
pIC50: −log10 of the molar value.

Target: Vascular endothelial growth factor receptor 2 (Homo sapiens, UniProt P35968)
Experiment: In vitro Inhibition Assay
Settings: 30 °C
Procedure: Assays are performed for 15 min at 30 °C, with 50 µM of P33-ATP in a final volume of 25 µL. The assays are terminated by spotting 20 µL of the reaction mixture onto a phosphocellulose P81 plate. The P81 plate was washed 3 times for ~15 min each in a 1% phosphoric acid solution to remove excess unreacted P33-ATP.

Vascular endothelial growth factor receptor 2, sequence (P35968 whole entry): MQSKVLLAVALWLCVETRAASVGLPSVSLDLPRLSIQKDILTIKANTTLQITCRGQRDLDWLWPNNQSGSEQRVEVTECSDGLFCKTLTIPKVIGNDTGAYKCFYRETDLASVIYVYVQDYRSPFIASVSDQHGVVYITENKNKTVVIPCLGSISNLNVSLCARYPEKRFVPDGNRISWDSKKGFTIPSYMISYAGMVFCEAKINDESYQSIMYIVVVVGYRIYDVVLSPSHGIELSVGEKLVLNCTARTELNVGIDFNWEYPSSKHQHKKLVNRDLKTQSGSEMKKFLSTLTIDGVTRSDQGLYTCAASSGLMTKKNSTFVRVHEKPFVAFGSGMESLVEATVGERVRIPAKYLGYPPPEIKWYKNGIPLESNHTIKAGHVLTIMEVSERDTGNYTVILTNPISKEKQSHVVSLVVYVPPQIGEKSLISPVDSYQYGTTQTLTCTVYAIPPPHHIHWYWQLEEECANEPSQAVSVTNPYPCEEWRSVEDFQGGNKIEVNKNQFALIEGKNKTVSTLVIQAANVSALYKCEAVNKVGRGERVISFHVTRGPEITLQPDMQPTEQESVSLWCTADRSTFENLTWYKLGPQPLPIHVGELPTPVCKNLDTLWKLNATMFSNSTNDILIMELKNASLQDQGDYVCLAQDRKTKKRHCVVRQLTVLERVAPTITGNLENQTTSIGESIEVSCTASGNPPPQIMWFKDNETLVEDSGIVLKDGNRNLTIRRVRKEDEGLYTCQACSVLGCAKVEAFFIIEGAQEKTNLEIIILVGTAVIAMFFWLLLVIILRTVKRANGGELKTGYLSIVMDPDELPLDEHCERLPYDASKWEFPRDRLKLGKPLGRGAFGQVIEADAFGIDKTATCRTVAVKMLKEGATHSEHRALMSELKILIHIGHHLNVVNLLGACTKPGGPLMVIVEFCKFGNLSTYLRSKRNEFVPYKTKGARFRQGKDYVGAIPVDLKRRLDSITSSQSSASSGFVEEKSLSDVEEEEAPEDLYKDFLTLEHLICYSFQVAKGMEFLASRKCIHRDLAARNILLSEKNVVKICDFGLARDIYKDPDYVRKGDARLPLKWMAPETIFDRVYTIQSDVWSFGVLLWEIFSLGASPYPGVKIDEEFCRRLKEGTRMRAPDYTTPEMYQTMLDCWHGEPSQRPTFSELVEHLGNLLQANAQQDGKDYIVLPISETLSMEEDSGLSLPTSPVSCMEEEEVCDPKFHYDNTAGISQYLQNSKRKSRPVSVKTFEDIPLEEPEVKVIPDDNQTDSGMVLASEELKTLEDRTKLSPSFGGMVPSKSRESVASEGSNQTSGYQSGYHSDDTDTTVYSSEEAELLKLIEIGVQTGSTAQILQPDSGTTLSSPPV

`O=C(Nc1ccc(Nc2cnc3cc([N+](=O)[O-])ccc3n2)cc1)Nc1cccc(Cl)c1` [1-(3-Chlorophenyl)-3-(4-((6-nitroquinoxalin-2-yl)amino)-phenyl)urea (XXIb)] was tested, and the pIC50 was 4.07.

`COc1ccc(Nc2nc3ccc(NC(=O)c4ccccc4C(=O)O)cc3[nH]c2=O)cc1` [2-((2-((4-Methoxyphenyl)amino)-3-oxo-3,4-dihydroquinoxalin-6-yl)carbamoyl)benzoic acid (IX)] showed a pIC50 of 4.21.

`COc1ccc(Nc2nc3ccc(NC(=O)Nc4ccccc4)cc3[nH]c2=O)cc1` [1-(2-((4-Methoxyphenyl)amino)-3-oxo-3,4 dihydroquinoxalin-6-yl)-3-phenylurea (VIIa)] showed a pIC50 of 4.99.

`O=C(Nc1ccccc1)Nc1ccc(Nc2cnc3cc([N+](=O)[O-])ccc3n2)cc1` [1-(4-((6-Nitroquinoxalin-2-yl)amino)phenyl)-3-phenylurea (XXIa)] gave a pIC50 of 3.57.

Compound `COc1ccc(Nc2cnc3cc(NC(=O)Nc4cccc(C)c4)ccc3n2)cc1` [1-(2-((4-Methoxyphenyl)amino)quinoxalin-6-yl)-3-(m-tolyl) urea (XVIc)] has a pIC50 of 3.68.
